The source of these data is US20250282830A1, “ANTI-VIRAL PEPTIDE COMPOSITIONS AND METHODS TO IMPROVE BIOLOGICAL ACTIVITY THEREOF” (priority 2021, published 2025).

No end group written: not given here.

A short description of assay [1]: Time-lapse fluorescence microscopy imaging of peptide-induced vesicle rupture. The method, then:
Highly parallel measurements of peptide-induced liposome rupture were conducted by time-lapsed epifluorescence microscopy imaging. An Eclipse Ti-E inverted microscope (Nikon) with a high-pressure mercury lamp, a CFI Plan Apochromat TIRF×60 oil-immersion objective (NA 1.49; Nikon) and an Andor iXon3 897 EMCCD camera (Andor Technology), was utilized for measurements. The samples were illuminated with a mercury lamp (Intenslight C-HGFIE) using a TRITC filter set. Briefly, glass coverslips were assembled into a microfluidic flow cell, and coated with a thin layer of PLL-g-PEG(-biotin), followed by tethering of 0.025 μg ml^−1 liposomes via biotin-neutravidin coupling. Peptide was then added at a volumetric rate of 100 μl min^−1, and micrographs were recorded every 5-30 s depending on the particular experiment. The initial time was defined by when the peptide solution entered the channel inlet. Data processing and analysis were conducted using ImageJ (National Institutes of Health) and Python(x,y) software packages. The diameter of individual liposomes was estimated based on fluorescence intensity values. […]
Using time-lapse fluorescence microscopy imaging, we further investigated the interactions of different versions of Peptides 2 and 4 with tethered vesicles at the single-vesicle level and saw different degrees of vesicle rupture in terms of total extent and speed (FIG. 14).

For the next assay, the system named is DENV-4. Briefly: Plaque reduction neutralization assay, DENV-4. It is filed as cell-based, Dengue virus serotype 4. Conditions: Vero cells; virus pre-incubated with peptide 1 h at 37° C.; read-out: DENV-4 PRNT50. The method, then: (§1) Vero cells were seeded at 1×10^5 cells per well and incubated overnight. Twofold serial dilutions of peptide were incubated with 200-300 p.f.u. of virus for 1 h at 37° C. Cells were infected with the virus-peptide mixture for 1 h at 37° C. The inoculum was removed and 0.8% (wt/vol) methylcellulose in medium supplemented with 1% FBS was added. After 3-5 days incubation, plates were fixed and analysed for plaques by immunostaining (DENV). For immunostaining, the cells were fixed, followed by incubation with 4G2, a mouse anti-DENV E protein monoclonal antibody (1:2,000 dilution), for 16-20 h. After addition of a secondary antibody, goat anti-mouse IgG (H+L)-HRP conjugate (1:2,000 dilution), the TrueBlue peroxidase substrate (KPL) was added and the optical density was measured at a wavelength of 450 nm. For crystal violet staining, cells were fixed with fixing solution (5% glutaric dialdehyde in Dulbecco's PBS) followed by staining with 0.1% crystal violet in fixing solution. The IC50 value was calculated by comparing the relative number of plaques in peptide-treated samples to virus-only samples using a four-parameter logistic curve fit.
A general note: In a plaque reduction assay, fewer plaques than in the control indicate reduced infectivity or spread.

A further assay has as its system DENV-1. The assay can be described thus: Plaque reduction neutralization assay, DENV-1. It is filed as cell-based, Dengue virus serotype 1. The note with it: Vero cells; virus pre-incubated with peptide 1 h at 37° C.; read-out: DENV-1 PRNT50. The method, then:
as §1

The test system of another assay is DENV-2. Briefly: Plaque reduction neutralization assay, DENV-2. The class given is cell-based, Dengue virus serotype 2. Conditions: Vero cells; virus pre-incubated with peptide 1 h at 37° C.; read-out: DENV-2 PRNT50. The method, then:
as §1

The test system of another assay is DENV-3. Briefly: Plaque reduction neutralization assay, DENV-3. The class given is cell-based, Dengue virus serotype 3. Conditions: Vero cells; virus pre-incubated with peptide 1 h at 37° C.; read-out: DENV-3 PRNT50. The method, then:
as §1

Regarding “AESWLWEVWDWVLHVLSDFKTCLKAKF (Synthetic_Anti-viral peptide derived from hepatitis C virus NS5A protein) [Peptide 10]”, in assay [1] (100 nM peptide), the “Vesicle rupture time, calcein (Cal) dye release” value (“Vesicle rupture time, calcein” below) is recorded as 2.38 ± 0.05 min and the “Vesicle rupture time, rhodamine (Rh) dye release” value (“Vesicle rupture time, rhodamine” for short) turned out to be 10.09 ± 0.10 min. Moreover, in assay [1] (1000 nM peptide), the “Vesicle rupture time, calcein” value is 2.06 ± 0.02 min and the “Vesicle rupture time, rhodamine” value was determined as 2.09 ± 0.05 min.

Regarding “AESWLWEVWDWVLHVLSDFKTCLKAKF [Peptide N10N]”, the IC50 stood at 720 nM in the assay on DENV-4, 201 nM in the assay with DENV-1, 936 nM in the assay with DENV-2 and 259 nM in the assay with DENV-3.

For the sequence “AESWLWEVWDWVLHVLSDFKTCLKAKF [Peptide N100]”, the IC50 in the assay on DENV-4 turned out to be 1150 nM; in the assay with DENV-1, 194 nM; in the assay on DENV-2 it was 362 nM; in the assay with DENV-3, 1110 nM.

Consider “AESWLWEVWDWVLHVLSDFKTCLKAKF [Peptide O100]”, for which the IC50 was found to be 567 nM with DENV-4, 60.3 nM with DENV-1, 396 nM in the assay on DENV-2 and 316 nM in the assay on DENV-3.

For “DGNWLYDIWNWVCTVLADFKLWLGAKI (Synthetic_Anti-viral peptide derived from hepatitis C virus NS5A protein) [Peptide 9]”, the “Vesicle rupture time, calcein” value in assay [1] (100 nM peptide) is reported as 4.22 ± 0.17 min; in assay [1] (1000 nM peptide) it was 1.41 ± 0.03 min. Moreover, the entries for the “Vesicle rupture time, rhodamine” value in assay [1] (100 nM peptide) and in assay [1] (1000 nM peptide) were 6.50 ± 0.07 min and 1.87 ± 0.014 min, respectively.

Take “DGNWLYDIWNWVCTVLADFKLWLGAKI [Peptide N9N]”: the IC50 was found to be 80.2 nM in the assay with DENV-4, 96.9 nM with DENV-1, 550 nM in the assay on DENV-2 and 476 nM in the assay on DENV-3.

As to “DGNWLYDIWNWVCTVLADFKLWLGAKI [Peptide N9O]”, the IC50 with DENV-4 was determined as 240 nM; with DENV-1, 139 nM; with DENV-2 it was 185 nM; in the assay with DENV-3, 262 nM.

With “DGNWLYDIWNWVCTVLADFKLWLGAKI [Peptide O9O]”, the IC50 was found to be 139 nM with DENV-4, 50 nM with DENV-1, 192 nM in the assay with DENV-2 and 119 nM with DENV-3.

Take “GDDWLHDIWDWVCIVLSDFKTWLSAKI (Synthetic_Anti-viral peptide derived from hepatitis C virus NS5A protein) [Peptide 8]”: in assay [1] (100 nM peptide), the “Vesicle rupture time, calcein” value is recorded as 2.49 ± 0.06 min and the “Vesicle rupture time, rhodamine” value was determined as 3.28 ± 0.08 min. Besides, in assay [1] (1000 nM peptide), the “Vesicle rupture time, calcein” value was 1.70 ± 0.02 min and the “Vesicle rupture time, rhodamine” value was 1.78 ± 0.02 min.

“GDDWLHDIWDWVCIVLSDFKTWLSAKI [Peptide N8N]”: the IC50 in the assay with DENV-4 came out at 194 nM; in the assay with DENV-1, 97.4 nM; with DENV-2, 253 nM; in the assay on DENV-3 it was 271 nM.

Regarding “GDDWLHDIWDWVCIVLSDFKTWLSAKI [Peptide N8O]”, the IC50 in the assay on DENV-4 is 343 nM; with DENV-1, 224 nM; in the assay on DENV-2, 257 nM; with DENV-3, 648 nM.

On to “GDDWLHDIWDWVCIVLSDFKTWLSAKI [Peptide O8O]”, for which the IC50 was 709 nM in the assay on DENV-4, 69.2 nM in the assay with DENV-1, 188 nM in the assay with DENV-2 and 444 nM in the assay on DENV-3.

For the sequence “GSTWLRDIWDWVCTVLSDFRVWLKSKL (Synthetic_Anti-viral peptide derived from hepatitis C virus NS5A protein) [Peptide 11]”, in assay [1] (100 nM peptide), the “Vesicle rupture time, calcein” value is 4.15 ± 0.04 min and the “Vesicle rupture time, rhodamine” value was 6.00 ± 0.13 min. For the same sequence, in assay [1] (1000 nM peptide), the “Vesicle rupture time, calcein” value was 4.67 ± 0.08 min and the “Vesicle rupture time, rhodamine” value was determined as 4.91 ± 0.38 min.

For the sequence “GSTWLRDIWDWVCTVLSDFRVWLKSKL [Peptide N11N]”, the IC50 was determined as 306 nM in the assay with DENV-4, 591 nM with DENV-1, 924 nM with DENV-2 and 289 nM in the assay with DENV-3.

As to “GSTWLRDIWDWVCTVLSDFRVWLKSKL [Peptide N11O]”, the IC50 was determined as 276 nM in the assay on DENV-4, 131 nM with DENV-1, 280 nM in the assay with DENV-2 and 947 nM in the assay on DENV-3.

In the case of “GSTWLRDIWDWVCTVLSDFRVWLKSKL [Peptide O110]”, the IC50 in the assay with DENV-4 stood at 810 nM; with DENV-1, 258 nM; in the assay on DENV-2 it was 1160 nM; in the assay on DENV-3, 490 nM.

Take “SDDWLRIIWDWVCSVVSDFKAWLSAKI (Synthetic_Anti-viral peptide derived from hepatitis C virus NS5A protein) [Peptide 5]”: in assay [1] (100 nM peptide), the “Vesicle rupture time, calcein” value was 4.69 ± 0.22 min and the “Vesicle rupture time, rhodamine” value is recorded as 15.25 ± 0.43 min. Moreover, in assay [1] (1000 nM peptide), the “Vesicle rupture time, calcein” value was 2.53 ± 0.10 min and the “Vesicle rupture time, rhodamine” value was 11.20 ± 0.17 min.

In the case of “SDDWLRIIWDWVCSVVSDFKAWLSAKI [Peptide N5N]”, the IC50 amounted to 338 nM in the assay with DENV-4, 236 nM with DENV-1, 545 nM with DENV-2 and 1380 nM with DENV-3.

As to “SDDWLRIIWDWVCSVVSDFKAWLSAKI [Peptide N5O]”, the IC50 was found to be 649 nM with DENV-4, 235 nM with DENV-1, 838 nM in the assay with DENV-2 and 1590 nM in the assay with DENV-3.

For “SDDWLRTIWDWVCSVLADFKAWLSAKI (Synthetic_Anti-viral peptide derived from hepatitis C virus NS5A protein) [Peptide 7]”, the “Vesicle rupture time, calcein” value in assay [1] (100 nM peptide) is given as 2.41 ± 0.06 min; in assay [1] (1000 nM peptide), 1.47 ± 0.01 min. Also, the results for the “Vesicle rupture time, rhodamine” value in assay [1] (100 nM peptide) and in assay [1] (1000 nM peptide) were 5.50 ± 0.11 min and 2.13 ± 0.00 min, respectively.

As for “SGDWLRIIWDWVCSVVSDFKTWLSAKI (Synthetic_Anti-viral peptide derived from hepatitis C virus NS5A protein) [Peptide 6]”, in assay [1] (100 nM peptide), the “Vesicle rupture time, calcein” value is recorded as 2.46 ± 0.02 min and the “Vesicle rupture time, rhodamine” value came out at 4.75 ± 0.06 min. Moreover, in assay [1] (1000 nM peptide), the “Vesicle rupture time, calcein” value is 1.57 ± 0.03 min and the “Vesicle rupture time, rhodamine” value came to 2.74 ± 0.03 min.

With “SGSWLRDIWDWICEVLSDFKTWLKAKL (Synthetic_Anti-viral peptide derived from hepatitis C virus NS5A protein) [Peptide 1]”, in assay [1] (100 nM peptide), the “Vesicle rupture time, calcein” value is on record as 5.95 ± 0.03 min and the “Vesicle rupture time, rhodamine” value is recorded as 10.58 ± 0.33 min. In assay [1] (1000 nM peptide), the “Vesicle rupture time, calcein” value is reported as 4.67 ± 0.32 min and the “Vesicle rupture time, rhodamine” value is recorded as 6.13 ± 0.09 min.

Consider “SGSWLRDIWEWVCSILTDFKNWLSAKL (Synthetic_Anti-viral peptide derived from hepatitis C virus NS5A protein) [Peptide 4]”, for which, in assay [1] (100 nM peptide), the “Vesicle rupture time, calcein” value is reported as 6.50 ± 0.3 min and the “Vesicle rupture time, rhodamine” value stood at 21.13 ± 0.38 min. Also, in assay [1] (1000 nM peptide), the “Vesicle rupture time, calcein” value was 3.71 ± 0.07 min and the “Vesicle rupture time, rhodamine” value came to 9.51 ± 0.09 min.

Turning to “SGSWLRDVWDWICTVLTDFKTWLQSKL [O2O] (not fully specified) [Peptide O2O, Peptide 2 with O and O terminal endings]”, in assay [1] (small and large tethered vesicles), the “Dependence of vesicle rupture on vesicle size (membrane-curvature sensing), single-vesicle analysis” value is “have membrane-curvature sensing mechanisms”.

As to SGSWLRDVWDWICTVLTDFKTWLQSKL [Peptide 2], in assay [1] (100 nM peptide), the “Vesicle rupture time, calcein” value is recorded as 5.54 ± 0.30 min and the “Vesicle rupture time, rhodamine” value came to 8.69 ± 0.08 min. In assay [1] (1000 nM peptide), the “Vesicle rupture time, calcein” value is listed as 1.91 ± 0.04 min and the “Vesicle rupture time, rhodamine” value is on record as 3.13 ± 0.12 min.

For the sequence SGSWLRDVWDWVCTILTDFKNWLTSKL [Peptide 3], the “Vesicle rupture time, calcein” value in assay [1] (100 nM peptide) is recorded as 4.53 ± 0.17 min; in assay [1] (1000 nM peptide), 1.97 ± 0.11 min. Further, the “Vesicle rupture time, rhodamine” value in assay [1] (100 nM peptide) was determined as 8.41 ± 0.08 min; in assay [1] (1000 nM peptide), 2.99 ± 0.03 min.
